Measured values: patent US9066938B2, “GPBP-1 inhibition and its therapeutic use” (Fibrostatin S.L., priority 2012, dated 2015)
Structures can show the parent of a compound that is named as a salt.

Experiments:
human recombinant GPBP-1 = target: T1, human recombinant GPBP-1 (Homo sapiens, UniProt Q9Y5P4); experiment: GPBP-1 in vitro autophosphorylation (kinase) assay with [γ-32P]ATP; assay type: biochemical
T1 construct: made in house; host or cells: Pichia pastoris
T1 sequence (Q9Y5P4 1-624): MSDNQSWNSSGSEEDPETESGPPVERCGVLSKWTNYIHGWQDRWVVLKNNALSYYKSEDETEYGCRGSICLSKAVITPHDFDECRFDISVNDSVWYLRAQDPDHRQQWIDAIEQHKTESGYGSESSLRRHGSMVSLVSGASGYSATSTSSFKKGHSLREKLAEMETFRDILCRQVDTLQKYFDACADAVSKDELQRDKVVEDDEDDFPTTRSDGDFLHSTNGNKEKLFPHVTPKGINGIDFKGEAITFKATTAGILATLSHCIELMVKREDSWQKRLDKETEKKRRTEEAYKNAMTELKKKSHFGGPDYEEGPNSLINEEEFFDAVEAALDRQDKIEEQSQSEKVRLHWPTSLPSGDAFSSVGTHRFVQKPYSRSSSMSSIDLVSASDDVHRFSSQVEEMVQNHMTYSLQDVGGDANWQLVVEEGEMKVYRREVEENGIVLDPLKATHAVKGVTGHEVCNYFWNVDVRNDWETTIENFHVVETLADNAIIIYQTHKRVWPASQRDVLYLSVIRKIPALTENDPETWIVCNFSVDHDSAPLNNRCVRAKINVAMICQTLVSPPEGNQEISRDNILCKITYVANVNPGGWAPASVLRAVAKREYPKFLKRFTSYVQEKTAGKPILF
Description: To explore the possibility that doxorubicin, an anti-tumor agent targeting topoisomerase II (Pommier et al. 2010), operates through GPBP-1, human recombinant GPBP-1 (Raya et al. 1999) was subjected to in vitro autophosphorylation in the presence or absence of doxorubicin and T12 (FIG. 1A).

[1] = test system: GPBP expression in A549 cells; experiment: GPBP expression in A549 cells after treatment; assay type: cell-based, human
Experimental: A549 cells treated for 4 weeks with 1 μM doxorubicin (A549-DR). Fifty μg of cellular lysates of A549 and A549-DR cells were analyzed by Western blot to assess the levels of GPBP using GPBP-specific mAb N27. Tubulin was stained with specific antibodies and used as loading control.
This was assessed by selecting A549 cells with doxorubicin and analyzed GPBP expression by Western blot (FIG. 15).

[2] = target: T2, recombinant human GPBP-1 produced in insect cells (Homo sapiens, UniProt Q9Y5P4); experiment: Affinity constants for GPBP-1 by the Benesi-Hildebrand method; assay type: binding
T2 construct: FLAG (N); made in house; host or cells: SF9 insect cells (baculovirus, pFastBac1)
T2 sequence (Q9Y5P4 1-624): T1 sequence (Q9Y5P4 1-624)
Experimental: FIG. 1. […] A, to assess the inhibitory activity of T12 and doxorubicin on GPBP-1 kinase activity and their synergism, approximately 200 ng of yeast FLAG-GPBP-1 from two different preparations with low and high specific activities were incubated with [γ-^32P]ATP in the absence (−) or presence (+) of the indicated compounds and concentrations. Mixtures were subjected to Western blot and autoradiographed (^32P). The levels of GPBP were further analyzed using anti-FLAG (WB). B, in the panel is shown affinity constants of the indicated compounds for recombinant human GPBP-1 produced in insect cells calculated by the Benesi-Hildebrand method. Recombinant yeast GPBP-1 was expressed in Pichia pastoris and affinity-purified as previously described (Raya et al. 1999, raya et al. 2000). To express and purify recombinant FLAG-GPBP-1 from SF9 insect cells, the cDNA of FLAG-GPBP-1 was cloned in the baculovirus expression vector pFastBac1. The plasmid was transformed into DH10Bac competent cells and the recombinant baculovirus was produced following manufacturer's recommendations (Bac-to-Bac™ Baculovirus Expression System, Invitrogen, Life Technologies). Baculovirus was used to infect SF9 cells and GPBP-1 in the supernatant of culture media was purified by affinity chromatography using anti-FLAG agarose (Sigma-Aldrich) following manufacturer's recommendations. GPBP-1 phosphorylation assays were performed as previously described (Raya et al. 1999).

[3] = test system: CSC/SP compartment of A549 cell cultures; experiment: Side population (CSC/SP) staining with Hoechst 33342, flow cytometry; assay type: cell-based, human; details: for cell content of the CSC/SP compartment: single compound
Experimental: FIG. 9. […] A, cultures of A549 cells were incubated with Hoescht 33342 in the absence (−) or presence (+) of verapamil (50 μM) and fumitremorgin C (10 μM). Circled area (R2) denotes the region containing the flow cytometry events representing CSC/SP cells. B, shown are the relative abundance of CSC/SP cells (%) in cell cultures untreated (control) or treated with the indicated compounds.
A549 cells were suspended at 10^6 cells/mL in culture medium containing 10 mM Hepes (previously warmed at 37° C.). Hoechst 33342 was added at 5 μg/mL and cells incubated in a 37° C. bath with shaking for 90 min in the dark. Before incubation (and after staining) an aliquot of 1 mL was taken and verapamil (50 μM) and fumitremorgin C (10 μM) added. Cells were centrifuged at 300×g for 5 min at 4° C. and suspended in cold medium with 10 mM Hepes. Cells were kept at 4° C. until analysis. Analysis of Hoechst 33342 efflux was assessed using a Flow Cytometer with incident 350 nm ultraviolet light. The resulting fluorescence was measured at two wavelengths using 424/44 BP and 675 LP filters that allow detection of Hoechst blue and red, respectively. […] Doxorubicin content in either population was estimated with incident 488 nm blue light and 585/40 filter. Verapamil and fumitremorgin C werer used to identify SP region.

A549 xenografts = experiment: Mouse xenograft study with A549 tumors; assay type: in vivo, nude mice; details: for tumor growth, single compound: doxorubicin 2.5 mg/kg per week i.p. or T12 20 mg/kg per day in drinking water, three weeks
Experimental: FIG. 11. T12 and doxorubicin are synergistic arresting growth of A549-based tumors. Nude mice bearing A549 xenografts were treated with the indicated compounds as indicated in Methods and Experimental Design. Indicated are the tumor size at the indicated times. […] FIG. 12. T12 and doxorubicin are synergistic necrotizing A549-based tumors. Tumor samples from mice used in FIG. 11 were fixed in formalin, paraffin-embedded, subjected to Masson's trichrome staining and observed by optical microscopy. Necrotic areas are indicated with asterisks. Shown are representative images. FIG. 13. […] Ten-week old nude mice (NMRi-Foxn1^nu/Foxn1^nu) (Janvier) were used for xenograft studies. Three-million A549 cells were suspended in 100 μL of culture medium, mixed with 200 μL Matrigel (BD) and subcutaneously injected on the flank of individual mouse (n=40). Tumor size was periodically measured with a digital caliper and volumes were calculated with the formula […]. […] After three weeks mice were sacrificed, tumor xenografts excised and either fixed with formalin and paraffin-embedded or frozen and RNA extracted. Sections of paraffin-embedded tumor samples were subjected to hematoxylin and eosin and Masson's trichrome standard stainings. Frozen tumor samples were ground with a mortar in liquid nitrogen and total RNA extracted as above indicated.

[4] = 2.5 mg/kg/week doxorubicin and 20 mg/kg/day T12, three weeks

| SMILES | inhibition of GPBP-1 autophosphorylation (human recombinant GPBP-1; compound alone) | GPBP expression in A549 cells in response to treatment [1] | affinity / manner of binding to GPBP-1 [2] | binding to GPBP-1, fold stronger than T12 (affinity constants) ([2]; relative to T12) | cell content of the CSC/SP compartment [3] | tumor growth, single compound (A549 xenografts) | inhibitory activity on GPBP-1 autophosphorylation in combination with doxorubicin (human recombinant GPBP-1; T12 plus doxorubicin) | CSC/SP compartment relative to untreated cultures, co-treatment ([3]; doxorubicin and T12 co-treatment) | matrix metalloproteinase 10 (MMP-10) expression in tumors, combined treatment (A549 xenografts; 2.5 mg/kg/week doxorubicin and 20 mg/kg/day T12, qPCR) | necrotic areas within the tumors, combined treatment (A549 xenografts; [4]) | tumor growth, combined administration (A549 xenografts; [4]) |
| --- | --- | --- | --- | --- | --- | --- | --- | --- | --- | --- | --- |
| COc1cccc2c1C(=O)c1c(O)c3c(c(O)c1C2=O)C[C@@](O)(C(=O)CO)C[C@@H]3O[C@H]1C[C@H](N)[C@H](O)[C@H](C)O1 [doxorubicin, doxorubicin hydrochloride, reference compound] | efficiently inhibited | increased GPBP cell expression | irreversible | ~10^5 fold | reduction | did not impaired tumor growth | – | – | – | – | – |
| COc1ccc(-c2ccc(-c3cccc(C)c3)c(C)c2)c(CCC(=O)O)c1 [T12, 3-[4″-methoxy-3,2′-dimethyl-(1,1′;4′,1″)terphenyl-2″-yl] propionic acid] | – | no evidence for increased expression of GPBP | light-moderated affinity | – | reduction | did not impaired tumor growth | synergistic | one fourth | lower levels | more extensive | tumor arrest |
